Data taken from patent US12577223B2, “Processes for preparing 2-(4-chlorophenyl)-n-((2-(2,6-dioxopiperidin-3-yl)-1-oxoisoindolin-5-yl)methyl)-2,2-difluoroacetamide” (Celgene Corporation, priority 2019, dated 2026).

Test: dynamic vapor sorption (DVS) analysis
Format: physicochemical
Details: relative humidity increased from about 0% to about 90% RH
Excerpt: FIG. 5 provides a DVS isotherm plot of polymorph Form C of 2-(4-chlorophenyl)-N-((2-(2,6-dioxopiperidin-3-yl)-1-oxoisoindolin-5-yl)methyl)-2,2-difluoroacetamide.
In certain embodiments, polymorph Form C is characterized by dynamic vapor sorption analysis. A representative dynamic vapor sorption (DVS) isotherm plot is shown in
FIG. 5. […] In certain embodiments, polymorph Form C comprises less than 0.1% water as determined in a coulometric Karl Fischer (KF) titrator equipped with an oven sample processor set at 225° C.

**Q.** Which water uptake does the source give for `O=C1CCC(N2Cc3cc(CNC(=O)C(F)(F)c4ccc(Cl)cc4)ccc3C2=O)C(=O)N1` (stereo not shown) [polymorph Form C, 2-(4-chlorophenyl)-N-((2-(2,6-dioxopiperidin-3-yl)-1-oxoisoindolin-5-yl)methyl)-2,2-difluoroacetamide] here?
**A.** The water uptake was “about 0.6 % w/w”.
